Measurements reported in the supplement of paper PMC10307832.

Tests used:
Experiment in all cases: relative viability (nuclei count vs DMSO), 5 days (fraction); higher = more cells survive
201T = tested on: 201T
Procedure, shortened: (§1)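 Lung cancer cell lines in 1536-well plates were dosed by pin tool the day after seeding, either with one drug alone or with a fixed anchor-drug dose plus five library-drug doses (not always all listed) in √10 steps. After 5 days, cells were fixed and their nuclei stained in one step (final 0.05% Triton X-100, 1% formaldehyde, 1 ug/ml Hoechst), then counted on 4× images. Relative viability is the nuclei count in treated wells divided by that in vehicle wells. Values are medians of duplicate plates.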

BEN = tested on: BEN
Procedure, shortened: as §1

COR-L 105 = tested on: COR-L 105
Procedure, shortened: as §1

EKVX = tested on: EKVX
Procedure, shortened: as §1

EPLC-272H = tested on: EPLC-272H
Procedure, shortened: as §1

H3255 = tested on: H3255
Procedure, shortened: as §1

HCC-44 = tested on: HCC-44
Procedure, shortened: as §1

HCC-827 = tested on: HCC-827
Procedure, shortened: as §1

HOP-62 = tested on: HOP-62
Procedure, shortened: as §1

LCLC-97TM1 = tested on: LCLC-97TM1
Procedure, shortened: as §1

LOU-NH91 = tested on: LOU-NH91
Procedure, shortened: as §1

LU99A = tested on: LU99A
Procedure, shortened: as §1

NCI-H1395 = tested on: NCI-H1395
Procedure, shortened: as §1

NCI-H1437 = tested on: NCI-H1437
Procedure, shortened: as §1

NCI-H1666 = tested on: NCI-H1666
Procedure, shortened: as §1

NCI-H1975 = tested on: NCI-H1975
Procedure, shortened: as §1

NCI-H2085 = tested on: NCI-H2085
Procedure, shortened: as §1

NCI-H2087 = tested on: NCI-H2087
Procedure, shortened: as §1

NCI-H358 = tested on: NCI-H358
Procedure, shortened: as §1

NCI-H647 = tested on: NCI-H647
Procedure, shortened: as §1

PC-3 [JPC-3] = tested on: PC-3 [JPC-3]
Procedure, shortened: as §1

SW 1573 = tested on: SW 1573
Procedure, shortened: as §1

CC1(C)CCC(c2ccc(Cl)cc2)=C(CN2CCN(c3ccc(C(=O)NS(=O)(=O)c4ccc(N[C@H](CCN5CCOCC5)CSc5ccccc5)c(S(=O)(=O)C(F)(F)F)c4)cc3)CC2)C1 [Navitoclax] + Cc1nc(NC(=O)N2CCC[C@H]2C(N)=O)sc1-c1ccnc(C(C)(C)C(F)(F)F)c1 [Alpelisib] (partner 2 µM)
relative viability (201T; first compound 0.005 µM): 1.03 | relative viability (201T; first compound 0.01581 µM): 1.04 | relative viability (201T; first compound 0.05 µM): 1.02 | relative viability (201T; first compound 0.1581 µM): 1 | relative viability (201T; first compound 0.5 µM): 1.03 | relative viability (BEN; first compound 0.005 µM): 0.983 | relative viability (BEN; first compound 0.01581 µM): 1.13 | relative viability (BEN; first compound 0.05 µM): 1.02 | relative viability (BEN; first compound 0.1581 µM): 1.08 | relative viability (BEN; first compound 0.5 µM): 0.831 | relative viability (COR-L 105; first compound 0.005 µM): 0.878 | relative viability (COR-L 105; first compound 0.01581 µM): 1.22 | relative viability (COR-L 105; first compound 0.05 µM): 0.989 | relative viability (COR-L 105; first compound 0.1581 µM): 1.07 | relative viability (COR-L 105; first compound 0.5 µM): 0.978 | relative viability (EKVX; first compound 0.005 µM): 0.828 | relative viability (EKVX; first compound 0.01581 µM): 1.15 | relative viability (EKVX; first compound 0.05 µM): 0.765 | relative viability (EKVX; first compound 0.1581 µM): 0.928 | relative viability (EKVX; first compound 0.5 µM): 0.833 | relative viability (EPLC-272H; first compound 0.005 µM): 0.877 | relative viability (EPLC-272H; first compound 0.1581 µM): 0.933 | relative viability (EPLC-272H; first compound 0.5 µM): 0.821 | relative viability (H3255; first compound 0.005 µM): 0.635 | relative viability (H3255; first compound 0.01581 µM): 0.745 | relative viability (H3255; first compound 0.05 µM): 0.6 | relative viability (H3255; first compound 0.1581 µM): 0.744 | relative viability (H3255; first compound 0.5 µM): 0.732 | relative viability (HCC-44; first compound 0.005 µM): 0.736 | relative viability (HCC-44; first compound 0.01581 µM): 0.805 | relative viability (HCC-44; first compound 0.05 µM): 0.849 | relative viability (HCC-44; first compound 0.1581 µM): 0.795 | relative viability (HCC-44; first compound 0.5 µM): 0.694 | relative viability (HCC-827; first compound 0.005 µM): 1.07 | relative viability (HCC-827; first compound 0.01581 µM): 1.1 | relative viability (HCC-827; first compound 0.05 µM): 0.766 | relative viability (HCC-827; first compound 0.1581 µM): 1.02 | relative viability (HCC-827; first compound 0.5 µM): 1.01 | relative viability (HOP-62; first compound 0.005 µM): 0.781 | relative viability (HOP-62; first compound 0.01581 µM): 1.06 | relative viability (HOP-62; first compound 0.05 µM): 0.869 | relative viability (HOP-62; first compound 0.1581 µM): 0.871 | relative viability (HOP-62; first compound 0.5 µM): 0.785 | relative viability (LCLC-97TM1; first compound 0.005 µM): 0.335 | relative viability (LCLC-97TM1; first compound 0.01581 µM): 0.328 | relative viability (LCLC-97TM1; first compound 0.05 µM): 0.241 | relative viability (LCLC-97TM1; first compound 0.1581 µM): 0.228 | relative viability (LCLC-97TM1; first compound 0.5 µM): 0.243 | relative viability (LOU-NH91; first compound 0.005 µM): 0.729 | relative viability (LOU-NH91; first compound 0.01581 µM): 0.809 | relative viability (LOU-NH91; first compound 0.05 µM): 0.69 | relative viability (LOU-NH91; first compound 0.1581 µM): 0.769 | relative viability (LOU-NH91; first compound 0.5 µM): 0.645 | relative viability (LU99A; first compound 0.005 µM): 0.5 | relative viability (LU99A; first compound 0.01581 µM): 0.573 | relative viability (LU99A; first compound 0.05 µM): 0.406 | relative viability (LU99A; first compound 0.1581 µM): 0.526 | relative viability (LU99A; first compound 0.5 µM): 0.473 | relative viability (NCI-H1395; first compound 0.005 µM): 1.05 | relative viability (NCI-H1395; first compound 0.01581 µM): 1.26 | relative viability (NCI-H1395; first compound 0.05 µM): 1.2 | relative viability (NCI-H1395; first compound 0.1581 µM): 1.19 | relative viability (NCI-H1395; first compound 0.5 µM): 1.12 | relative viability (NCI-H1437; first compound 0.005 µM): 0.885 | relative viability (NCI-H1437; first compound 0.01581 µM): 1.04 | relative viability (NCI-H1437; first compound 0.05 µM): 0.98 | relative viability (NCI-H1437; first compound 0.1581 µM): 1.05 | relative viability (NCI-H1437; first compound 0.5 µM): 0.871 | relative viability (NCI-H1666; first compound 0.005 µM): 1.03 | relative viability (NCI-H1666; first compound 0.01581 µM): 0.944 | relative viability (NCI-H1666; first compound 0.05 µM): 1.06 | relative viability (NCI-H1666; first compound 0.1581 µM): 0.878 | relative viability (NCI-H1666; first compound 0.5 µM): 0.958 | relative viability (NCI-H1975; first compound 0.005 µM): 0.639 | relative viability (NCI-H1975; first compound 0.01581 µM): 0.732 | relative viability (NCI-H1975; first compound 0.05 µM): 0.752 | relative viability (NCI-H1975; first compound 0.1581 µM): 0.653 | relative viability (NCI-H1975; first compound 0.5 µM): 0.578 | relative viability (NCI-H2085; first compound 0.005 µM): 0.944 | relative viability (NCI-H2085; first compound 0.01581 µM): 0.996 | relative viability (NCI-H2085; first compound 0.05 µM): 0.881 | relative viability (NCI-H2085; first compound 0.1581 µM): 0.957 | relative viability (NCI-H2085; first compound 0.5 µM): 0.925 | relative viability (NCI-H2087; first compound 0.005 µM): 1.25 | relative viability (NCI-H2087; first compound 0.01581 µM): 1.17 | relative viability (NCI-H2087; first compound 0.05 µM): 1.03 | relative viability (NCI-H2087; first compound 0.1581 µM): 1.05 | relative viability (NCI-H2087; first compound 0.5 µM): 1.08 | relative viability (NCI-H358; first compound 0.005 µM): 0.817 | relative viability (NCI-H358; first compound 0.01581 µM): 0.955 | relative viability (NCI-H358; first compound 0.05 µM): 1.01 | relative viability (NCI-H358; first compound 0.1581 µM): 1.04 | relative viability (NCI-H358; first compound 0.5 µM): 0.856 | relative viability (NCI-H647; first compound 0.005 µM): 1.04 | relative viability (NCI-H647; first compound 0.01581 µM): 1.35 | relative viability (NCI-H647; first compound 0.05 µM): 1.48 | relative viability (NCI-H647; first compound 0.1581 µM): 1.14 | relative viability (NCI-H647; first compound 0.5 µM): 0.75 | relative viability (PC-3 [JPC-3]; first compound 0.005 µM): 1.04 | relative viability (PC-3 [JPC-3]; first compound 0.01581 µM): 1.02 | relative viability (PC-3 [JPC-3]; first compound 0.05 µM): 1.02 | relative viability (PC-3 [JPC-3]; first compound 0.1581 µM): 1.03 | relative viability (PC-3 [JPC-3]; first compound 0.5 µM): 1.06 | relative viability (SW 1573; first compound 0.005 µM): 0.635 | relative viability (SW 1573; first compound 0.01581 µM): 0.836 | relative viability (SW 1573; first compound 0.05 µM): 0.917 | relative viability (SW 1573; first compound 0.1581 µM): 0.796 | relative viability (SW 1573; first compound 0.5 µM): 0.718
